Source: ChEMBL document CHEMBL1134228, “Structure-activity analysis of truncated orexin-A analogues at the orexin-1 receptor” (Bioorg Med Chem Lett, 2001)
Active and inactive are the calls of the source. The rule behind the calls is not given here.

Target: T1, Orexin/Hypocretin receptor type 1 (Homo sapiens) (UniProt O43613)
T1 sequence (whole entry): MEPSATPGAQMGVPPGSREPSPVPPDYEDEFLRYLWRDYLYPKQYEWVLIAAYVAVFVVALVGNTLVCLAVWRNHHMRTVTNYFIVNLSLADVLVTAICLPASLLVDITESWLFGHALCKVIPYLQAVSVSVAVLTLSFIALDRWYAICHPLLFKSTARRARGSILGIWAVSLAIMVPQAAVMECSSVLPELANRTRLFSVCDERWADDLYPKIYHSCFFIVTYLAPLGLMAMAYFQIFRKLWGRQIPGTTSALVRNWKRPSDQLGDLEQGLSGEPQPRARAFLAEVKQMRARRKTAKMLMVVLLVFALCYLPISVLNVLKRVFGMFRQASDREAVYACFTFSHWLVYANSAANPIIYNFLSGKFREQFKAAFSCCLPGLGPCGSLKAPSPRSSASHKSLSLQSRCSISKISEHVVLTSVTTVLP
Assay: Compound was tested for antagonist activity expressed as percentage response at 10 uM, relative to maximal orexin-A induced response against OX1 receptor; IA is Inactive
Type: functional
Settings: not given

Row | Activity | Molecule
1 | inactive | H-GNHAAGILTL-NH2

Tested on: CHO
Assay: Percentage response at 10 uM, relative to maximal orexin-A induced response; Inactive
Type: functional, cell-based
Settings: Cricetulus griseus

Row | Molecule | Activity
2 | H-RLYELLHGAGNHAAGALTL-NH2 | inactive

Tested on: CHO
Assay: Percentage response for agonist like activity at 10 uM, relative to maximal orexin-A induced response in CHO cells was determined
Type: functional, Cricetulus griseus
Settings: not given

Row | Molecule | Activity [%]
3 | CC[C@H](C)[C@H](NC(=O)[C@@H](C)NC(=O)[C@H](C)NC(=O)[C@H](C)NC(=O)[C@H](Cc1c[nH]cn1)NC(=O)[C@H](CC(N)=O)NC(=O)CNC(=O)[C@H](C)NC(=O)CNC(=O)[C@H](Cc1c[nH]cn1)NC(=O)[C@H](CC(C)C)NC(=O)[C@H](CC(C)C)NC(=O)[C@H](CCC(=O)O)NC(=O)[C@H](Cc1ccc(O)cc1)NC(=O)[C@H](CC(C)C)NC(=O)[C@@H](N)CCCN=C(N)N)C(=O)N[C@@H](CC(C)C)C(=O)N[C@H](C(=O)N[C@@H](CC(C)C)C(N)=O)[C@@H](C)O | 15
4 | H-ELLHGAGNHAAGILTL-NH2 | 13
5 | H-LLHGAGNHAAGILTL-NH2 | 16
6 | H-RAYELLHGAGNHAAGILTL-NH2 | 71
7 | H-RLYEALHGAGNHAAGILTL-NH2 | 60
8 | H-RLYELAHGAGNHAAGILTL-NH2 | 37
9 | H-RLYELLHGAGNAAAGILTL-NH2 | 61
10 | H-RLYELLHGAGNHAAGIATL-NH2 | 12
11 | H-RLYELLHGAGNHAAGILAL-NH2 | 39
12 | H-RLYELLHGAGNHAAGILTA-NH2 | 15
13 | H-YELLHGAGNHAAGILTL-NH2 | 40

Tested on: not listed separately
Assay: Functional potency was determined by concentration required for activation of OX1 (Orexin-1) receptor expressed in chinese hamster ovary cells (CHO) and increasing the intracellular calcium concentration
Type: cell-based
Settings: Cricetulus griseus

Row | EC50 [nM] | Molecule
14 | 355 | CC[C@H](C)[C@H](NC(=O)CNC(=O)[C@H](C)NC(=O)[C@H](C)NC(=O)[C@H](Cc1cnc[nH]1)NC(=O)[C@H](CC(N)=O)NC(=O)CNC(=O)[C@H](C)NC(=O)CNC(=O)[C@H](Cc1cnc[nH]1)NC(=O)[C@H](CC(C)C)NC(=O)[C@H](CC(C)C)NC(=O)[C@H](CCC(=O)O)NC(=O)[C@H](Cc1ccc(O)cc1)NC(=O)[C@H](CC(C)C)NC(=O)[C@@H](N)CCCNC(=N)N)C(=O)N[C@@H](CC(C)C)C(=O)N[C@H](C(=O)N[C@@H](CC(C)C)C(N)=O)[C@@H](C)O
15 | 347 | H-ALYELLHGAGNHAAGILTL-NH2
16 | 776 | H-RLAELLHGAGNHAAGILTL-NH2
17 | 195 | H-RLYALLHGAGNHAAGILTL-NH2
18 | 1290 | H-RLYELLAGAGNHAAGILTL-NH2
19 | 646 | H-RLYELLHAAGNHAAGILTL-NH2
20 | 832 | H-RLYELLHGAANHAAGILTL-NH2

Target: T2, Orexin/Hypocretin receptor type 1 (Homo sapiens, UniProt O43613)
T2 sequence (O43613 whole entry): T1 sequence (whole entry)
Assay: Binding affinity to Orexin receptor type 1 was determined using laser scanning cytometry
Settings: not given

Row | Ki [nM] | Molecule
21 | 269 | CC[C@H](C)[C@H](NC(=O)CNC(=O)[C@H](C)NC(=O)[C@H](C)NC(=O)[C@H](Cc1cnc[nH]1)NC(=O)[C@H](CC(N)=O)NC(=O)CNC(=O)[C@H](C)NC(=O)CNC(=O)[C@H](Cc1cnc[nH]1)NC(=O)[C@H](CC(C)C)NC(=O)[C@H](CC(C)C)NC(=O)[C@H](CCC(=O)O)NC(=O)[C@H](Cc1ccc(O)cc1)NC(=O)[C@H](CC(C)C)NC(=O)[C@@H](N)CCCNC(=N)N)C(=O)N[C@@H](CC(C)C)C(=O)N[C@H](C(=O)N[C@@H](CC(C)C)C(N)=O)[C@@H](C)O
22 | 66100 | H-ELLHGAGNHAAGILTL-NH2

Tested on: CHO
Assay: Percentage response for agonist like activity at 10 uM, relative to maximal orexin-A induced response in CHO cells was determined; Inactive
Type: functional, cell-based
Settings: Cricetulus griseus

Row | Molecule | Activity
23 | CC[C@H](C)[C@H](NC(=O)CNC(=O)[C@H](C)NC(=O)[C@H](C)NC(=O)[C@H](Cc1c[nH]cn1)NC(=O)[C@H](CC(N)=O)NC(=O)CNC(=O)[C@H](C)NC(=O)CNC(=O)[C@H](Cc1c[nH]cn1)NC(=O)[C@H](CC(C)C)NC(=O)[C@H](CC(C)C)NC(=O)[C@H](CCC(=O)O)NC(=O)[C@H](Cc1ccc(O)cc1)NC(=O)[C@H](CC(C)C)NC(=O)[C@@H](N)CCCN=C(N)N)C(=O)N[C@@H](CC(C)C)C(=O)N[C@@H](C(=O)N[C@@H](CC(C)C)C(N)=O)[C@@H](C)O | inactive
24 | H-GILTL-NH2 | inactive
